Values after ≈ are worked out from the molar mass of the structure shown.
Key:
MCF7 = assay: Antiproliferative activity against human MCF7 cells after 48 hrs by SRB assay; format: functional, cell-based; conditions: MCF7, 48 h
HepG2 = assay: Antiproliferative activity against human HepG2 cells after 48 hrs by SRB assay; format: functional, cell-based; conditions: HepG2, 48 h

Structure (SMILES)	IC50 (MCF7)	IC50 (HepG2)
S=c1nc(-c2cc3ccccc3[nH]2)[nH][nH]1	13.8 µg/mL (≈ 63.8 µM)	15.9 µg/mL (≈ 73.5 µM)
COc1cccc2c1C(=O)c1c(O)c3c(c(O)c1C2=O)C[C@@](O)(C(=O)CO)C[C@@H]3O[C@H]1C[C@H](N)[C@H](O)[C@H](C)O1 [DOXORUBICIN]	4 µg/mL (≈ 7.36 µM)	4 µg/mL (≈ 7.36 µM)
OCCn1nc(-c2cc3ccccc3[nH]2)nc1SCc1ccccc1	14.6 µg/mL (≈ 41.7 µM)	12.1 µg/mL (≈ 34.5 µM)
CC(=O)OC[C@H]1O[C@@H](n2nc(SCc3ccccc3)nc2-c2cc3ccccc3[nH]2)[C@H](OC(C)=O)[C@@H](OC(C)=O)[C@@H]1OC(C)=O	16 µg/mL (≈ 25.1 µM)	16.1 µg/mL (≈ 25.3 µM)
CC(=O)N[C@@H]1[C@@H](OC(C)=O)[C@H](OC(C)=O)[C@@H](COC(C)=O)O[C@H]1n1nc(SCc2ccccc2)nc1-c1cc2ccccc2[nH]1	15.9 µg/mL (≈ 25 µM)	16.6 µg/mL (≈ 26.1 µM)
CC(=O)N[C@@H]1[C@@H](OC(C)=O)[C@H](OC(C)=O)[C@@H](COC(C)=O)O[C@H]1n1nc(-c2cc3ccccc3[nH]2)nc1SCc1ccccc1	> 100 µg/mL	> 100 µg/mL
OCCCn1nc(SCc2ccccc2)nc1-c1cc2ccccc2[nH]1	16.2 µg/mL (≈ 44.4 µM)	11.5 µg/mL (≈ 31.6 µM)
c1ccc(CSc2nc(-c3cc4ccccc4[nH]3)n[nH]2)cc1	4.53 µg/mL (≈ 14.8 µM)	3.58 µg/mL (≈ 11.7 µM)
c1ccc(CSc2nc(-c3cc4ccccc4[nH]3)nn2Cc2ccccc2)cc1	10.8 µg/mL (≈ 27.2 µM)	17.9 µg/mL (≈ 45.1 µM)
C=CCn1nc(-c2cc3ccccc3[nH]2)nc1SCc1ccccc1	15.5 µg/mL (≈ 44.7 µM)	15.9 µg/mL (≈ 45.9 µM)
c1ccc(CSc2nc(-c3cc4ccccc4[nH]3)n(Cc3ccccc3)n2)cc1	14.8 µg/mL (≈ 37.3 µM)	16.3 µg/mL (≈ 41.1 µM)

From ChEMBL document CHEMBL4041476, “Design, selective alkylation and X-ray crystal structure determination of dihydro-indolyl-1,2,4-triazole-3-thione and its 3-benzylsulfanyl analogue as potent anticancer agents” (Eur J Med Chem, 2017)
